Test results taken from patent US10399953B2, “Preparation of furan fatty acids from 5-(chloromethyl)furfural” (THE REGENTS OF THE UNIVERSITY OF CALIFORNIA, priority 2015, dated 2019).

Assay: 2,2-diphenyl-1-picrylhydrazyl (DPPH) radical scavenging assay
Assay type: biochemical
Details: for DPPH Scavenging %: 30 minutes, room temperature, dark, absorption at 517 nm; for antioxidant activity (quenching of the DPPH radical), in words: 25, 50 and 100 μg/mL
Excerpt: The antioxidant activity of the FFAs has been evaluated by a range of methods, including spin trapping of N-oxide radicals (Okada et al. (1996) Biol. Pharm. Bull. 19: 1607), inhibition of radically initiated oxygen uptake in linoleic acid (Okada et al. (1990) J. Am. Oil Chem. Soc. 67: 858) and unsaturated fatty acid moieties of phosphatidyl choline liposomes (Ishii et al. (1989) Chem. Pharm. Bull. 37: 1396), and acting as a substrate for plant lipoxygenase (Batna and Spiteller (1994) Lipids 29: 397). We have evaluated the free radical scavenging abilities of synthetic FFAs 5a (n=1, m=9, R^1=R^2=H) and 5b (n=1, m=9, R^1=R^2=Me) against butylated hydroxytoluene (BHT) by 2,2-diphenyl-1-picrylhydrazyl (DPPH) assay.
The method of Moon and Shibamoto (Moon and Shibamoto (2009) J. Agric. Food Chem. 57: 1655) was used to evaluate antioxidant activity. DPPH (0.0177 g) was dissolved in methanol (MeOH) (100 mL) and 500 μL of this solution was added into test tubes containing 11-(5-propylfuran-2-yl)undecanoic acid and 11-(3,4-dimethyl-5-propylfuran-2-yl)undecanoic acid at concentrations of 25, 50, and 100 μg/mL after dilution of stock solutions with MeOH to 1.0 mL total volume. A 1.0 mg/mL BHT stock solution (100 μL) was diluted with 400 μL methanol and the DPPH solution (500 μL). A control solution was prepared by adding methanol (500 μL) into the DPPH solution (500 μL), and a methanol blank was used for the baseline correction. The tubes were allowed to stand at room temperature in the dark for 30 minutes and the change in the absorption at 517 nm was measured by UV-visible spectrometry. Radical scavenging ability was expressed as DPPH scavenging % and calculated using this formula: DPPH scavenging %=(control abs.−sample abs./control abs.)×100.

| SMILES | DPPH Scavenging % (25 μg/mL) [%] | DPPH Scavenging % (50 μg/mL) [%] | inhibition (DPPH assay) (100 μg/mL) [%] | DPPH Scavenging % (100 μg/mL) [%] | antioxidant activity (quenching of the DPPH radical), in words | antioxidant power relative to BHT on a mass basis (of BHT, mass basis, 100 μg/mL) [%] | antioxidant power relative to BHT based on molar concentrations (of BHT, recalculated on molar concentrations) [%] |
| --- | --- | --- | --- | --- | --- | --- | --- |
| CCCc1oc(CCCCCCCCCCC(=O)O)c(C)c1C [Compound 5b, 11-(3,4-Dimethyl-5-propylfuran-2-yl)undecanoic Acid] | 7 | 27 | 53 | 53 | concentration-dependent quenching of the DPPH radical | 57 | 83 |
| Cc1cc(C(C)(C)C)c(O)c(C(C)(C)C)c1 [BHT, butylated hydroxytoluene, reference compound] | – | – | 93 | 93 | – | – | – |
| CCCc1ccc(CCCCCCCCCCC(=O)O)o1 [Compound 5a, 11-(5-Propylfuran-2-yl)undecanoic Acid] | 4 | −2 | – | −3 | virtually no antioxidant activity | – | – |
